For data set [1], the system named is spontaneously hypertensive rats. The data set can be described thus: Hypotensive action (systolic blood pressure, W+W Recorder 8002) in spontaneously hypertensive rats. The class given is in vivo, spontaneously hypertensive rats (SHR rats). The protocol:
(§1) The substances were administered orally with a probang to fasting spontaneously hypertensive rats. The animals were fasted 17 hours before the start of the experiment. All the substances were dissolved in 1% strength carboxymethylcellulose (MH 300), and the administration volume was 10 ml/kg. The starting values of the blood pressure and heart rate were recorded directly before the administration. The action of the substance was measured 1, 2, 4, 7 and 24 hours after the administration. The measurement was performed non-invasively with a W+W Recorder 8002, it being possible to measure the systolic blood pressure and the heart rate. The animals were offered food again 4 hours after administration of the substance. The values can be seen from Table 1, page 5. […] The experiment was carried out by the same method as in Example 1, and the values can be seen in Table 2.

For data set [2] the test system is unchanged. As to the kind of experiment: Heart rate-modifying action in spontaneously hypertensive rats. It counts as in vivo, spontaneously hypertensive rats (SHR rats). As to the method: as §1
Data set [3] deals with collagen-induced aggregation of human platelets. The data set can be described thus: Inhibition of collagen-induced aggregation of human platelets in vitro (method of Born, platelet-rich human plasma). It counts as cell-based. The protocol:
Inhibition of the collagen-induced aggregation of human platelets by the combination of 4,5-dihydro-6-[4-(1-imidazolyl)-thien-2-yl]-5-methyl-3(2H)-pyridazinone hydrochloride (D) with lofexidine (A).
The inhibition of collagen-induced platelet aggregation in vitro was carried out by the method of Born (Nature, 194, 927-929 (1962)) on platelet-rich human plasma with 4,5-dihydro-6-[4-(1-imidazolyl)-thien-2-yl]-5-methyl-3(2H)-pyridazinone hydrochloride (D), lofexidine (A) and with mixtures of A and D.
In each case the mean value of 4 independent determinations has been given. In the investigations of the mixtures, the concentration of A was constant at 1×10^-5 mole/l.

The conditions of data set [4]: peripheral vasodilation; cited from earlier work.

pIC50: −log10 of the molar value. Values joined by “and” are separate entries in the source; they are usually repeats but may differ in a detail not shown here. Equal entries are not always repeated. Structures can show the parent of a compound that is named as a salt.

With `CC(Oc1c(Cl)cccc1Cl)C1=NCCN1.Cl` (racemic) [Substance A, (±)-2-[1-(2,6-dichlorophenoxy)-ethyl]-1,3-diazacyclopent-2-ene hydrochloride], the “Systolic blood pressure, Δ after administration of the substance” value (shortened to “Systolic blood pressure, Δ”) in data set [1] (0.1 mg/kg p.o., 1 hour) was -18.8 ± 16.6 mmHg; in data set [1] (0.1 mg/kg p.o., 2 hours), -4.0 ± 18.6 mmHg; in data set [1] (0.1 mg/kg p.o., 4 hours), -11.8 ± 23.2 mmHg; in data set [1] (0.1 mg/kg p.o., 7 hours), -10.8 ± 26.9 mmHg; in data set [1] (1.0 mg/kg p.o., 1 hour) it was -28.4 ± 13.1 mmHg; in data set [1] (1.0 mg/kg p.o., 2 hours), -22.8 ± 11.8 mmHg. Moreover, the “Systolic blood pressure, Δ” value in data set [1] (1.0 mg/kg p.o., 4 hours) is listed as -23.6 ± 15.5 mmHg; in data set [1] (1.0 mg/kg p.o., 7 hours) it was -22.2 ± 17.4 mmHg. The “Heart rate, Δ after administration of the substance” value (“Heart rate, Δ after administration” for short) was “+10 ± 13 beats/minute” in data set [2] (0.1 mg/kg p.o., 1 hour); “+37 ± 27 beats/minute” in data set [2] (0.1 mg/kg p.o., 2 hours); “+12 ± 12 beats/minute” in data set [2] (0.1 mg/kg p.o., 4 hours); -14 ± 12 beats/minute in data set [2] (0.1 mg/kg p.o., 7 hours); -22 ± 18 beats/minute and -22 ± 8 beats/minute in data set [2] (1.0 mg/kg p.o., 1 hour, hydrochloride); -6 ± 13 beats/minute in data set [2] (1.0 mg/kg p.o., 2 hours). For the same molecule, the “Heart rate, Δ after administration” value in data set [2] (1.0 mg/kg p.o., 4 hours) was -2 ± 15 beats/minute; in data set [2] (1.0 mg/kg p.o., 7 hours), -10 ± 16 beats/minute. In data set [3] (A at 1 × 10^-5 mole/l, D 0, mean of 4 determinations), the “% inhibition of collagen-induced platelet aggregation” value is on record as 3%.

On to `CC1CC(=O)NN=C1c1ccc(-n2ccnc2)cc1` (stereo not drawn) [Substance B, 4,5-dihydro-6-[4-(1-imidazolyl)-phenyl]-5-methyl-3(2H)-pyridazinone], for which the “Systolic blood pressure, Δ” value in data set [1] (10.0 mg/kg p.o., 1 hour) is -95.4 ± 3.4 mmHg; in data set [1] (10.0 mg/kg p.o., 2 hours), -97.2 ± 4.6 mmHg; in data set [1] (10.0 mg/kg p.o., 4 hours), -98.4 ± 5.6 mmHg; in data set [1] (10.0 mg/kg p.o., 7 hours) it was -93.0 ± 5.6 mmHg; in data set [1] (10.0 mg/kg p.o., 24 hours), -35.8 ± 6.6 mmHg. Moreover, the “Heart rate, Δ after administration” value is given as “+113 ± 14 beats/minute” in data set [2] (10.0 mg/kg p.o., 1 hour); “+108 ± 10 beats/minute” in data set [2] (10.0 mg/kg p.o., 2 hours); “+85 ± 21 beats/minute” in data set [2] (10.0 mg/kg p.o., 4 hours); “+129 ± 24 beats/minute” in data set [2] (10.0 mg/kg p.o., 7 hours); “+16 ± 16 beats/minute” in data set [2] (10.0 mg/kg p.o., 24 hours).

`CC1CC(=O)NN=C1c1cc(-n2ccnc2)cs1` (stereo not drawn) [Substance C, 4,5-dihydro-6-[4-(1-imidazolyl)-thien-2-yl]-5-methyl-3(2H)-pyridazinone]: the “Systolic blood pressure, Δ” value in data set [1] (10.0 mg/kg p.o., 1 hour) is reported as -48.1 ± 16.2 mmHg; in data set [1] (10.0 mg/kg p.o., 2 hours) it was -66.2 9.9 mmHg; in data set [1] (10.0 mg/kg p.o., 4 hours) it was -93.9 ± 6.8 mmHg; in data set [1] (10.0 mg/kg p.o., 7 hours), -98.9 ± 9.1 mmHg. Further, the “Heart rate, Δ after administration” value in data set [2] (10.0 mg/kg p.o., 1 hour) is on record as “+104 ± 21 beats/minute”; in data set [2] (10.0 mg/kg p.o., 2 hours), “+91 ± 10 beats/minute”; in data set [2] (10.0 mg/kg p.o., 4 hours), “+70 ± 12 beats/minute”; in data set [2] (10.0 mg/kg p.o., 7 hours), “+36 ± 13 beats/minute”.

In the case of `CC1CC(=O)NN=C1c1cc(-n2ccnc2)cs1` (stereo not drawn) [Substance D, 4,5-dihydro-6-[4-(1-imidazolyl)-thien-2-yl]-5-methyl-3(2H)-pyridazinone hydrochloride], the pIC50 in data set [3] (Homo sapiens, Platelet, read-out: concentration for a half-maximum inhibition (IC50) of the collagen-induced platelet aggregation) is 7.34.

For `NNc1nnc(NN)c2ccccc12` [dihydralazine], the “side effect in hypertension therapy” value in data set [4] is “reflex tachycardia”.

Turning to `NNc1nncc2ccccc12` [hydralazine], the “side effect in hypertension therapy” value in data set [4] is given as “reflex tachycardia”.

Turning to `Nc1cc(N2CCCCC2)nc(N)[n+]1[O-]` [minoxidil], the “side effect in hypertension therapy” value in data set [4] is “reflex tachycardia”.

Source of the values: patent publication US4661487A (priority 1984, dated 1987).
